We go through 2 compounds from US20040219508A1, “Screening, quantitation and identification of active ingredients in natural products” (Sloan-Kettering Institute for Cancer Research, priority 2002, published 2004).

SMILES strings stand for the structures.

One data set relates to MKN-74 cells. The data set is described as follows: Flow cytometry with MPM-2 labeling after nocodazole synchronisation. In kind it is cell-based, human. An excerpt: Activation of cyclin B1 associated cdc2 kinase by mitotic inhibitors including paclitaxel induces an increased accumulation of cells into the M phase of the cell cycle (12). Thus, a decrease in cyclin B1 associated kinase activity should prevent cells from entering M and results in an accumulation of cells in G2. It should also force cells in M to exit M and continue to cell cycle. Experiments were designed to test this in the MKN-74 cells by flow cytometry and labeling of cells with the MPM-2 antibody which identifies cells in mitosis. This is difficult to assess in asynchronous cells. So as to better document accumulation of cell in G2, experiments were designed to first synchronise the cells with nocodazole in the M phase (e.g. mitotic block).
(A flow cytometer gives signals particle by particle.)

A further data set concerns MKN-74. The data set can be described thus: MTT growth assay. In kind it is cell-based, human. As to conditions: 10 μg/ml berberine. A general note: Tetrazolium dyes change colour on reduction, which living cells bring about.
Data set [1] is described as follows: Metabolism by human liver S9 microsomes, HPLC/UV. In kind it is in vitro ADME. The note with it: extract 3 μ/ml, S9 1 mg/ml with NADPH. As for the experimental part: Since oral drugs are metabolised by a “first-pass” through the liver, we also elected to determine whether huanglian would be metabolised in vitro by human liver S9 microsomes (Gentest, MA). This assay creates metabolites of a drug that are equivalent to those formed on a “first-pass” through the liver. For these studies, the huanglian extract, at a final concentration of 3 μ/ml, was exposed to human liver S9 microsomes at 1 mg/ml with NADPH. The microsomal extracts obtained in this assay were then analyzed by HPLC and UV spectroscopy.

For data set [2] the following is noted: human, in vivo. The procedure: Pharmacokinetic studies (PK). Bloods for pharmacokinetic studies (PK) will be performed on days 1, 2, 8, 15 and 29 of treatment. Repeated bloods for PK will be drawn on day #1 only, before the daily dose (time=0), 1 hour after, and 2,4, 6, 8 and 24 hours after the first dose of huanglian. On all other days, a single PK blood sample will be drawn, to measure steady state levels of the drug. For these studies 10 ml of heparinized blood (green stopper vacutainer tube) will be collected. Plasma samples (PK) will be sent for pharmacokinetic measurements of huanglian peaks.
Pharmacokinetic (PK) and surrogate marker studies: Since berberine represents approximately 50% of the herb, PK measurements were being conducted of berberine by HPLC. However, only very low levels of berberine (<50 ng/ml) have been detected in the plasma of any patient on the study. Also being tested is plasma collected from patients on day #15 of therapy to determine if the patient's own plasma will inhibit cancer cell growth of the gastric cancer cell line MKN-74 ex vivo, as determined by SRB assays. For these studies, the patient's plasma is concentrated and the MKN-74 cells are exposed to the patient's own plasma for either 2 (II) or 4 (IV) days before the tumor cells are assayed for growth inhibition. As shown for the patient treated in cohort 3 (see graph below), the patient's own pretreatment plasma (day 0) was capable of inhibiting MKN-74 cell growth, even though the patient had been off all chemotherapy for at least 4 weeks. Three separate samples were then drawn on day 15 of treatment at 8:30 AM, 9:30 AM, and 12:30 PM. […] The last lanes show the positive control of media “spiked” with huanglian (HL) at a concentration of 20 μg/ml and exposed to MKN-74 cells for both 2 and 4 days. This degree of growth suppression confirms the activity of the herb from the capsules.

In another data set the test system is HepG2 hepatoma cells. The note with it: continuous exposure, 1 to 50 μM; cited from earlier work.
For data set [3] the following is noted: dogs; cited from earlier work.
The conditions of data set [4]: cited from earlier work.
For data set [5] the following is noted: cited from earlier work. The source holds these as a separate data set.

For the compound `COC(=O)Nc1nc2ccc(C(=O)c3cccs3)cc2[nH]1` [nocodazole], the “cells remaining in M” value with MKN-74 cells (nocodazole for 12 hours (NOC12)) stood at 41%; with MKN-74 cells (nocodazole, then drug free medium 24 hours (NOC12→(−)24)), 16%.

For the compound `COc1ccc2cc3[n+](cc2c1OC)CCc1cc2c(cc1-3)OCO2` [berberine], the “inhibition of cell proliferation” value in the data set with MKN-74 is reported as “not able to inhibit cell proliferation to the same degree as either the huanglian or its metabolites”. In data set [1], the “change of HPLC peaks after liver microsome treatment” value was “decreased only slightly”. Also, in data set [2], the “Plasma B” value is 0 to 0.024 µg/mL, the “berberine in plasma by HPLC” value is given as “non-measurable by HPLC” and the “berberine level in plasma” value was under 50 ng/mL. The tumor cell growth result in the data set with HepG2 hepatoma cells is “inhibits tumor cell growth in a dose-dependent manner”. For the same compound, in data set [3], the cardiovascular effects result was “positive inotropic effects and lower peripheral vascular resistance”. Further, in data set [4] (12 patients), the facial flushing was 2 patients and the transient nausea is 2 patients. Also, in data set [4] (after berberine, returned to baseline after 24 hours), the QTc interval result is recorded as “consistently elevated in all 12 patients”. Also, in data set [4] (i.v. 0.2 mg/kg/min over 30 minutes), the hemodynamic effects result was “decrease in pulmonary and systemic vascular resistance and an increase in cardiac index and ejection fraction”. In data set [4] (within 1-20 hours of the infusion), the “ventricular tachycardia with torsades de pointes morphology, patients” value is listed as “Four of 12”. The “clinical effect at higher plasma concentration” value in data set [5] (berberine plasma concentrations >0.11 mg/L) is “more significant increase in LVEF and decrease in the frequency and complexity of ventricular premature beats”. The side effects entry in data set [5] (by mouth, 1.2 gm/d for two weeks, 56 patients) is “no side effects or arrythmogenesis”.
